Assay results reported in article PMC4501059, “Responding to the challenge of untreatable gonorrhea: ETX0914, a first-in-class agent with a distinct mechanism-of-action against bacterial Type II topoisomerases” (Scientific Reports, 2015).

Tests used:
[1] = rat, in vivo
in vivo = conditions: rat, po
[2] = Quantitative whole-body autoradiography, tissue distribution of radioactivity; type: in vivo, male pigmented Lister Hood rat
Procedure: Quantitative whole-body autoradiography. The distribution of radioactivity in male, pigmented Lister Hood rat tissues was obtained after a single intravenous infusion over 15 minutes of ^14C-AZD0914 at 25 mg/kg (51 μmol/kg, 5 MBq/kg) using quantitative whole-body autoradiography with phosphor-imaging technology. The potential of this compound and/or its metabolites to bind to melanin-containing tissues and/or to potentially bind covalently to tissues was also evaluated. The rats were sacrificed at 5 minutes, 1 hour, 4 hours, 24 hours, 48 hours, 7 days and 21 days after the end of infusion with enflurane (Efrane®, Abbott Laboratories, USA), and frozen in acetone, cooled to -70 °C with solid CO2. The 7- and 21- day animals could not be quantified as no trace of radioactivity was observed. After removal of limbs and tail, the carcass was embedded, with left lateral side uppermost, in a 2.5% (w/v) aqueous solution of caramellosum natricum and frozen for at least 10 minutes. The animal blocks were stored at -20 °C until sectioning. Sagittal whole-body sections (30 μm) were obtained to include organs and tissues of interest. At sectioning each block was mounted in a Leica CM3600 Cryomacrotome (Leica Microsystems GmbH, Germany) maintained at approximately -20 °C. All sections were dried at -20 °C for at least 1 day prior to exposure on phosphor-imaging plates. Together with two sets of calibration standards, the sections were placed on phosphor-imaging plates, which had been pre-covered with a thin plastic film. The imaging plates were exposed for 1 to 3 days at +4 to +12 °C, enclosed in light tight cassettes in a lead shielding box to protect from environmental radiation. Following exposure, the imaging plates were scanned at a pixel size of 50 μm using FLA-7000 (FujiFilm Sverige AB, Sweden). The tissues and organs of interest were quantified using AIDA 3.5 (Raytest, Germany). The quantification limit was defined as twice the background value of the imaging plate and varied between the plates from 0.23 to 0.33 nmol/g. The various tissues and organs were identified either on the autoradiograms or on the corresponding tissue sections.

[3] = plasma protein binding, mouse; conditions: in vitro at 1-50 µM
[4] = Human plasma protein binding (PPB); conditions: independent of concentration 1–50 μM
[5] = 5 minutes after 25 mg/kg iv infusion
[6] = 1 hour after 25 mg/kg iv infusion
[7] = 4 hours after 25 mg/kg iv infusion

With `CC(=O)NC[C@H]1CN(c2ccc(N3CCOCC3)c(F)c2)C(=O)O1` [Linezolid] the neutrophil count [1] was “showing suppression”, the reticulocytes count ([1]; 250 mg/kg) was “significant suppression” and the AUC (in vivo) was 1900 µM·h.
In the case of `C[C@@H]1CN2c3c(cc4c(N5C(=O)OC[C@@H]5C)noc4c3F)C[14C]3(C(=O)NC(=O)NC3=O)[C@H]2[C@H](C)O1` [^14C-ETX0914], the “Total radioactivity: Adrenal cortex” value [2, 5] is reported as 84 nmol/g, the “Total radioactivity: Adrenal medulla” value [2, 5] is reported as 43 nmol/g and the “Total radioactivity: Aortic wall” value [2, 5] is reported as 53 nmol/g. For the same compound, the “Total radioactivity: Bile” value [2, 5] was 1200 nmol/g, the “Total radioactivity: Bone marrow” value [2, 5] was 35 nmol/g and the “Total radioactivity: Brain” value [2, 5] was 0.79 nmol/g. For the same compound, the “Total radioactivity: Choroid & retinal pigment epithelium” value [2, 5] was 16 nmol/g, the “Total radioactivity: Heart blood” value [2, 5] was 27 nmol/g and the “Total radioactivity: Liver” value [2, 5] was 320 nmol/g. For the same compound, the “Total radioactivity: Lung” value [2, 5] was 52 nmol/g, the “Total radioactivity: Lymph node” value [2, 5] was 29 nmol/g and the “Total radioactivity: Myocardium” value [2, 5] was 73 nmol/g. The “Total radioactivity: Renal cortex” value [2, 5] was 170 nmol/g, the “Total radioactivity: Renal medulla (inner)” value (shortened to “Total radioactivity … (inner)”) [2, 5] was 70 nmol/g and the “Total radioactivity: Renal medulla (outer)” value (“Total radioactivity … (outer)” for short) [2, 5] was 68 nmol/g. The “Total radioactivity: Skeletal muscle” value [2, 5] was 29 nmol/g, the “Total radioactivity: Skin, pigmented” value [2, 5] was 15 nmol/g and the “Total radioactivity: Spinal cord” value [2, 5] was 1.0 nmol/g. For the same compound, the “Total radioactivity: Testis” value [2, 5] was 2.4 nmol/g, the “Total radioactivity: Urine” value [2, 5] was 51 nmol/g and the “Total radioactivity: White fat” value [2, 5] was 6.6 nmol/g. For the same compound, the “Total radioactivity: Adrenal cortex” value [2, 6] was 40 nmol/g, the “Total radioactivity: Adrenal medulla” value [2, 6] was 26 nmol/g and the “Total radioactivity: Aortic wall” value [2, 6] was 58 nmol/g. For the same compound, the “Total radioactivity: Bile” value [2, 6] was 1500 nmol/g, the “Total radioactivity: Bone marrow” value [2, 6] was 20 nmol/g and the “Total radioactivity: Brain” value [2, 6] was 0.72 nmol/g. For the same compound, the “Total radioactivity: Choroid & retinal pigment epithelium” value [2, 6] was 17 nmol/g, the “Total radioactivity: Heart blood” value [2, 6] was 18 nmol/g and the “Total radioactivity: Liver” value [2, 6] was 190 nmol/g. The “Total radioactivity: Lung” value [2, 6] was 31 nmol/g, the “Total radioactivity: Lymph node” value [2, 6] was 23 nmol/g and the “Total radioactivity: Myocardium” value [2, 6] was 42 nmol/g. For the same compound, the “Total radioactivity: Renal cortex” value [2, 6] was 130 nmol/g, the “Total radioactivity … (inner)” value [2, 6] was 32 nmol/g and the “Total radioactivity … (outer)” value [2, 6] was 120 nmol/g. For the same compound, the “Total radioactivity: Skeletal muscle” value [2, 6] was 20 nmol/g, the “Total radioactivity: Skin, pigmented” value [2, 6] was 20 nmol/g and the “Total radioactivity: Spinal cord” value [2, 6] was 1.0 nmol/g. For the same compound, the “Total radioactivity: Testis” value [2, 6] was 5.7 nmol/g, the “Total radioactivity: Urine” value [2, 6] was 400 nmol/g and the “Total radioactivity: White fat” value [2, 6] was 8.9 nmol/g. For the same compound, the “Total radioactivity: Adrenal cortex” value [2, 7] was 8.7 nmol/g, the “Total radioactivity: Adrenal medulla” value [2, 7] was 4.5 nmol/g and the “Total radioactivity: Aortic wall” value [2, 7] was 13 nmol/g. For the same compound, the “Total radioactivity: Bone marrow” value [2, 7] was 4.0 nmol/g, the “Total radioactivity: Choroid & retinal pigment epithelium” value [2, 7] was 8.1 nmol/g and the “Total radioactivity: Heart blood” value [2, 7] was 4.2 nmol/g. For the same compound, the “Total radioactivity: Liver” value [2, 7] was 69 nmol/g, the “Total radioactivity: Lung” value [2, 7] was 6.9 nmol/g and the “Total radioactivity: Lymph node” value [2, 7] was 4.1 nmol/g. The “Total radioactivity: Myocardium” value [2, 7] was 6.9 nmol/g, the “Total radioactivity: Renal cortex” value [2, 7] was 39 nmol/g and the “Total radioactivity … (inner)” value [2, 7] was 8.0 nmol/g. The “Total radioactivity … (outer)” value [2, 7] was 18 nmol/g, the “Total radioactivity: Skeletal muscle” value [2, 7] was 4.2 nmol/g and the “Total radioactivity: Skin, pigmented” value [2, 7] was 3.6 nmol/g. For the same compound, the “Total radioactivity: Spinal cord” value [2, 7] was 0.30 nmol/g, the “Total radioactivity: Testis” value [2, 7] was 2.6 nmol/g and the “Total radioactivity: Urine” value [2, 7] was 100 nmol/g. The “Total radioactivity: Brain” value ([2]; 4 hours after 25 mg/kg iv infusion, BLQ = below limit of quantification (0.24)) was “BLQ^d”, the “Total radioactivity: Liver” value ([2]; 24 hours after 25 mg/kg iv infusion) was 0.35 nmol/g and the “Total radioactivity: Liver” value ([2]; 48 hours after 25 mg/kg iv infusion, BLQ = below limit of quantification (0.24)) was “BLQ”. The “melanin or covalent binding of parent and/or metabolites to tissue” value ([2]; pigmented rat) was “no melanin or covalent binding”, the CNS penetration ([2]; rat, whole-body autoradiography) was “very low CNS penetration” and the “PPB (%free)” value [3] was 22.1 %free. The “PPB (%free)” value [4] was 17.0 % free.
